Measured values reported in patent publication US10604541B2, “Glucokinase activators and methods of using same” (BRISTOL-MYERS SQUIBB COMPANY, priority 2016, dated 2020).
Values after ≈ are worked out from the molar mass of the structure shown. Like-named read-outs stand apart in the source and are kept apart here.

How the values were obtained:
[1] = tested on: male DIO (diet-induced obese) C57BL/6J mice; assay: Oral glucose tolerance test (OGTT) in DIO mice; type: in vivo, mouse
Description: Oral glucose tolerance tests were carried out on male DIO (diet-induced obese) C57BL/6J mice fed a high fat diet (60% kcal from fat) for 26 weeks prior to experimentation. Mice were fasted overnight before use for experiments. A test compound or vehicle (either: 1) 40% PEG 400+10% Cremophore+50% water or 2) 10% dimethyl acetamide+10% ethanol+10% Cremophore+70% water) was given orally 60 min before oral administration of a glucose solution at a dose of 2 g/kg body weight (oral glucose tolerance test; OGTT). Blood glucose levels were measured from tail-bled samples taken at different time points before and after administration of glucose (time course of 2 hours). A time curve of the blood glucose was generated and the change from baseline area-under-the curve (ΔAUC) from 0-120 min was calculated (the time glucose administration being time zero).

[2] = Metabolic stability, mouse; type: in vitro ADME
CYP450 1A2 = target: T1, CYP450 1A2 (Homo sapiens, UniProt P05177); assay: CYP450 1A2 inhibition; type: in vitro ADME
T1 sequence (P05177 1-516): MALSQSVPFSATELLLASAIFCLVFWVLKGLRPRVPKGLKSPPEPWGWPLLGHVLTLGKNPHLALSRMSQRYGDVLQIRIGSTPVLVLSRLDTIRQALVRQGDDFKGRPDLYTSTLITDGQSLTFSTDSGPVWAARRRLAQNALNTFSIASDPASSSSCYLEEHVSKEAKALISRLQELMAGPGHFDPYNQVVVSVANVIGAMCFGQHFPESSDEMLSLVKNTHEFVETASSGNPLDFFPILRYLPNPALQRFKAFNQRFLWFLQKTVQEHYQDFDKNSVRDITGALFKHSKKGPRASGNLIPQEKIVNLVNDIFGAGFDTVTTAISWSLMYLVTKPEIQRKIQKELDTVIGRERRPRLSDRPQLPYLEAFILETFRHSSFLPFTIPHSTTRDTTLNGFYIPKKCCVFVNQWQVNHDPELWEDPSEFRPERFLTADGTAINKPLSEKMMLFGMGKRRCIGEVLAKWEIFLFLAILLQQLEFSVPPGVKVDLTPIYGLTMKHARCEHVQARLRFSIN

[3] = Pharmacokinetic study in mice (plasma and liver); type: in vivo; details: male, C57BL/6J, mouse, C57/B16J mice, 10 mg/kg oral
Description: Pharmacokinetic (PK) screening studies were carried out by methods known to one of ordinary skill in the art. For example, study compounds were administered orally to male C57 Black6j (C57B16J) mice (N=3 per time point) at 10 mg/kg as solutions in a PEG400/Cremphor EL/water (40/10/50) vehicle. The mice were fasted overnight prior to the PK study. Blood samples were taken at 0.5, 1, 2, and 4 hr post dose by cardiac bleeding. Blood samples (˜0.2 mL) were added with K2EDTA and centrifuged at 4° C. (1500-2000×g) to obtain plasma. Liver samples (N=3) were collected at 1 hr post dose. The liver tissues were homogenized with 3 volumes of water to form uniform homogenates. Both plasma and liver samples were stored at −20° C. before they were analyzed by LC/MS/MS. The plasma AUC were calculated using linear and log trapezoidal summations. The liver-to-plasma (L/P) ratio was calculated by dividing the total concentration in liver with plasma concentrations for respective mice. The average of L/P ratios from 3 mice was reported together with the standard deviation.

Mouse Glucokinase = target: T2, Mouse Glucokinase (Mus musculus, UniProt P52792); assay: Glucokinase activation, mouse GK; type: biochemical
T2 sequence (P52792 1-465): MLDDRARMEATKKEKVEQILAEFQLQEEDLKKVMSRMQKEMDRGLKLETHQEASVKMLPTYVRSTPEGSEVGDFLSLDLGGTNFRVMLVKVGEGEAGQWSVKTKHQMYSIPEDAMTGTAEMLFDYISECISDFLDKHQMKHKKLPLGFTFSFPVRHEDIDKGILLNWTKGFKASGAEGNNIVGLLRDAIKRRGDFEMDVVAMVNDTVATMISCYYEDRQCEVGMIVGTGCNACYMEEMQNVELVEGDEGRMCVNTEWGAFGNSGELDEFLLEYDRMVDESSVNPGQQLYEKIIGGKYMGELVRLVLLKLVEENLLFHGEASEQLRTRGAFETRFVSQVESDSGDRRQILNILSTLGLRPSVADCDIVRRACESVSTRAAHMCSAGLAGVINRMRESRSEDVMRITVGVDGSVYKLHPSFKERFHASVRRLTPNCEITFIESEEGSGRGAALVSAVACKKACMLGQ

CYP450 3A4 = CYP450 3A4 (Homo sapiens, UniProt P08684); assay: CYP450 3A4 inhibition; type: in vitro ADME
Human Glucokinase = target: T3, Human Glucokinase (Homo sapiens, UniProt P35557); assay: Glucokinase tandem enzymatic assay (human GK); type: biochemical
T3 construct: Full-length human hepatic GK (untagged) was expressed; made in house; host or cells: E. coli BL21 STAR (DE3)pLysS
T3 sequence (P35557 1-466 isoform P35557-2): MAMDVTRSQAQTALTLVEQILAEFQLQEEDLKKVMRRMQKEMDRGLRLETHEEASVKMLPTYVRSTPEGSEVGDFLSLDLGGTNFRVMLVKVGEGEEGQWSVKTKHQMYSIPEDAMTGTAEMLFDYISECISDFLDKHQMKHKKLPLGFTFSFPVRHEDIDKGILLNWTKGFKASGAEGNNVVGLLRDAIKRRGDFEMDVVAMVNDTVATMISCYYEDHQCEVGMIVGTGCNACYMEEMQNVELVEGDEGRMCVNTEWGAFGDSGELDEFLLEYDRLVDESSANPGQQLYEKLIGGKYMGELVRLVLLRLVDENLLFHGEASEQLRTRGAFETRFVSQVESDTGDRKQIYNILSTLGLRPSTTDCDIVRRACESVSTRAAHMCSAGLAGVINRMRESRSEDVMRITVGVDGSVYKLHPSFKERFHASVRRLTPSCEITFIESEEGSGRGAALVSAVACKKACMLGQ
Description: Enzymatic activity of human glucokinase (GK) was measured by incubating GK, ATP, and glucose for discrete time periods followed by quenching with EDTA (ethylenediamine tetra-acetic acid). Relative amounts of product glucose-6-phosphate (G6P) were measured by then running a detection assay using G6P dehydrogenase and measuring the conversion of ThioNAD (thio-nicotinamide adenine dinucleotide) to ThioNADH (thio-dihydronicotinamide adenine dinucleotide) at a wavelength of 405 nm. This “uncoupled” enzymatic reaction is denoted as the GK “tandem” assay. Activation of GK by the compound can be assessed using this assay. The GK tandem assay protocol described below was followed using a range of activator compound concentrations from 0 to 100 μM at 5 and 12 mM of glucose. Human full-length glucokinase (GK, 15 nM) was incubated with 5 or 12 mM glucose in a 384 well black microtiter plate with a clear bottom. To initiate the GK reaction, magnesium-ATP (3 mM final concentration) was added to GK in buffer (final buffer conditions of 25 mM HEPES buffer, pH 7.1, containing 1 mM dithiothreitol and 5% DMSO). The total reaction volume was 20 μL. The reaction was allowed to proceed for ten minutes and was then quenched with 5 μL EDTA; 45 mM final). The components of the detection reaction, ThioNAD and G6PDH (glucose-6-phosphate dehydrogenase) (final concentrations of 650 μM and 3.33 Units, respectively), were then added together in a volume of 25 μL, (to give a total volume of 50 μL). Absorbance measurements were made at 405 nm on a SPECTRAMAX® Plus 384 absorbance plate reader (Molecular Devices). Absorbance was read, background glucose-6-phosphate levels were subtracted, after which activation was calculated as a percentage of control activity. Control activity was determined using GK in the presence of vehicle (DMSO), with background glucose-6-phosphate subtracted. Background glucose-6-phosphate was determined by pre-quenching GK with EDTA prior to reaction initiation with ATP. […]

CYP450 2D6 = CYP450 2D6 (Homo sapiens, UniProt P10635); assay: CYP450 2D6 inhibition; type: in vitro ADME
CYP450 2C8 = target: T4, CYP450 2C8 (Homo sapiens, UniProt P10632); assay: CYP450 2C8 inhibition; type: in vitro ADME
T4 sequence (P10632 1-490): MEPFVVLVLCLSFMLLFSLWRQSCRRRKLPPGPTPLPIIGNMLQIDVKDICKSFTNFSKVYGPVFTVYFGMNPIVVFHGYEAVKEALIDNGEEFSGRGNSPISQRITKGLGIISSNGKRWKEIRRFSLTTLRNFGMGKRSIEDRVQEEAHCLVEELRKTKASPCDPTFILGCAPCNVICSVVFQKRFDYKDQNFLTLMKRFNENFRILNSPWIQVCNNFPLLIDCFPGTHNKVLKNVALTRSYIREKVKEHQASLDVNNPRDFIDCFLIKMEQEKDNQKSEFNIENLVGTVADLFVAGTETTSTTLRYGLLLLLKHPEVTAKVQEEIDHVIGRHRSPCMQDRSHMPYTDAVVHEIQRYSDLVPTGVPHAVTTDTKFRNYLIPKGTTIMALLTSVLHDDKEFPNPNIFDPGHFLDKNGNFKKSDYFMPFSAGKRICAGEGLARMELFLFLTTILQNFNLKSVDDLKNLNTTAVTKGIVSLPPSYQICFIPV

[4] = Metabolic stability in human liver microsomes; type: in vitro ADME
Aqueous solubility = type: physicochemical; details: aqueous medium (not further specified)
CYP450 2C9 = CYP450 2C9 (Homo sapiens, UniProt P11712); assay: CYP450 2C9 inhibition; type: in vitro ADME
CYP450 2C19 = CYP450 2C19 (Homo sapiens, UniProt P33261); assay: CYP450 2C19 inhibition; type: in vitro ADME
CYP450 2C19, sequence (P33261 whole entry): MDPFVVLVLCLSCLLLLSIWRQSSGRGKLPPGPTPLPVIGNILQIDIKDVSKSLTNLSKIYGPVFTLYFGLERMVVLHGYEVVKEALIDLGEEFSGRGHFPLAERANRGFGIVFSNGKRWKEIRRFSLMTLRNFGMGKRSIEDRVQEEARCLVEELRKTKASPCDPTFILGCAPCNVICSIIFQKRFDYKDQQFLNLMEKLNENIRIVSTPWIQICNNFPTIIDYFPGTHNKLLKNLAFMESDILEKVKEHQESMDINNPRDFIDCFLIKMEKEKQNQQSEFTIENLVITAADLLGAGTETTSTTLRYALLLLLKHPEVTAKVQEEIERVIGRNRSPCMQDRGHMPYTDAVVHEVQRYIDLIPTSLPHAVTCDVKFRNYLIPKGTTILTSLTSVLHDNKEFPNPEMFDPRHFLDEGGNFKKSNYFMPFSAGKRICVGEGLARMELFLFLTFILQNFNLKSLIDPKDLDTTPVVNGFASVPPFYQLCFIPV

CYP450 2C9, sequence (P11712 whole entry): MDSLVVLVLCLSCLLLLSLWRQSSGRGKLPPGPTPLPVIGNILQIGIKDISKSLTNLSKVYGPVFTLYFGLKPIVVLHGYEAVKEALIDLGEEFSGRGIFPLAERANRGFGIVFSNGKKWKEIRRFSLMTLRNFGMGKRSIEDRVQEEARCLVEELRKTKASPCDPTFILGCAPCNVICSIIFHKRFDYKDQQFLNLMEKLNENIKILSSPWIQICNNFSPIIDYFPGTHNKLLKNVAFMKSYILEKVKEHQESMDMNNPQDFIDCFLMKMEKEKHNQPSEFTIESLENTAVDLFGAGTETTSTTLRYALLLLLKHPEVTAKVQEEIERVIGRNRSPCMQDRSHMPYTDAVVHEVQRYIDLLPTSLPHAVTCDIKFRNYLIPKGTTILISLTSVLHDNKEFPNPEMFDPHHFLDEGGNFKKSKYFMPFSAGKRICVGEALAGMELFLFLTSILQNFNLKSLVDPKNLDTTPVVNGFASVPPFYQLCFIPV
CYP450 2D6, sequence (P10635 whole entry): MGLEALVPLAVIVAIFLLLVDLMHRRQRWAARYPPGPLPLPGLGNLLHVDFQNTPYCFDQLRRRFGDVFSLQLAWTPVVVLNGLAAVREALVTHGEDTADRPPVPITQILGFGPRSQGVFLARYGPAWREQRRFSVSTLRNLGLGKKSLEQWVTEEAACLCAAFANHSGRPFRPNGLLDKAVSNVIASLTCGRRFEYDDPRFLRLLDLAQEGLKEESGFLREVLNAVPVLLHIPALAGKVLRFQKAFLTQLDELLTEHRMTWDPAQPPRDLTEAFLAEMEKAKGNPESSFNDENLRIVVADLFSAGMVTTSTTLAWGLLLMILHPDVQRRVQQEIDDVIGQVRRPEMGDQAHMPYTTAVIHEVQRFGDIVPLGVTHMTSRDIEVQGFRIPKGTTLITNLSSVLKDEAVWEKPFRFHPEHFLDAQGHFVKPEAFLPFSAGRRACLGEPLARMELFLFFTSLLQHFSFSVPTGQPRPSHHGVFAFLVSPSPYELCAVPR
CYP450 3A4, sequence (P08684 whole entry): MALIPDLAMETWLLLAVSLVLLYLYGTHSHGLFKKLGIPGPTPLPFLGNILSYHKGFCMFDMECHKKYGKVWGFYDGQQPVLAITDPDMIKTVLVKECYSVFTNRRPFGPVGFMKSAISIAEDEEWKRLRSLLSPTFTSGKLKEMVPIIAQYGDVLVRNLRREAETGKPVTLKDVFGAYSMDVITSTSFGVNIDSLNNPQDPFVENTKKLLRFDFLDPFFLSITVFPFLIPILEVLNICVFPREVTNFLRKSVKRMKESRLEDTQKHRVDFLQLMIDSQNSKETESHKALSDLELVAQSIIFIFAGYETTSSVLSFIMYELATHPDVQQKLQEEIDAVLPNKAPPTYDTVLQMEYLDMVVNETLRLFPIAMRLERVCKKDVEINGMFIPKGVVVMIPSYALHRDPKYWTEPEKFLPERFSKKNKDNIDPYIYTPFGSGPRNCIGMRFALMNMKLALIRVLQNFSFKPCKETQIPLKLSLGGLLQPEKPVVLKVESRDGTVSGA

Metabolic Stability Mouse (0.5 μM) [2]: 92% | IC50 (CYP450 1A2): > 40 µM | Kp at 1 h ([3]; liver/plasma, po, 10 mg/kg, read-out: Liver/Plasma ratio): ~39 | AUC(0-t) ([3]; plasma, 0-4 hr): 1.53 µM·h | concentration at 0.5 h ([3]; plasma, 0.5 hr post dose): 604 ± 234 nM | concentration at 1 h ([3]; plasma, 1 hr post dose, read-out: Plasma (1 hr)): 631 ± 286 nM | concentration at 2 h ([3]; plasma, 2 hr post dose): 398 ± 193 nM | concentration at 4 h ([3]; plasma, 4 hr post dose): 193 ± 133 nM | concentration at 1 h ([3]; liver concentration 1 hr post dose, read-out: Liver (1 hr)): 21600 ± 1360 nM | EC50 (Mouse Glucokinase): 0.037 µM | Emax (Mouse Glucokinase; read-out: Mouse Glucokinase Ymax (maximal activation)): 194% | IC50 (CYP450 3A4): > 40 µM | EC50 (Human Glucokinase): 0.036 µM | IC50 (Human Glucokinase): 0.095 µM | Emax (Human Glucokinase; read-out: Human Glucokinase Ymax (maximal activation)): 194% | IC50 (CYP450 2D6): > 40 µM | IC50 (CYP450 2C8): 24.6 µM | Metabolic Stability Human Liver Microsomes (0.5 μM) [4]: 80% | solubility (Aqueous solubility): 74 µg/mL (≈ 121 µM) | IC50 (CYP450 2C9): 26.8 µM | IC50 (CYP450 2C19): > 40 µM
Compound: CC[C@@H](COC)Oc1cc(Oc2ccc(S(C)(=O)=O)nc2)cc(C(=O)Nc2nc(CP3(=O)OCCCO3)cs2)c1 [Example 1, 3-(((1S)-1-(methoxymethyl)propyl)oxy)-5-((6-(methylsulfonyl)-3-pyridinyl)oxy)-N-(4-((2-oxido-1,3,2-dioxaphosphinan-2-yl)methyl)-1,3-thiazol-2-yl)benzamide]
reduction in glucose AUC (after an oral glucose tolerance test in diet-induced obese mice) ([1]; 10 μmol/kg dose): 47% | Glucose lowering (AUC) (120 min) ([1]; OGTT, DIO mice, oral dose 10 μmol/kg, AUC 0-120 min): −47%
